Assay results: the supplement of paper PMC10307832

Key:
Test in all cases: relative viability (nuclei count vs DMSO), 5 days (fraction); higher = more cells survive
XMD14-99 + Luminespib = compound: CN1CCN(CC1)C2=CC(=C(C=C2)NC3=NC(=C(S3)C(=O)C4=C(C=CC=C4Cl)Cl)N)OC [XMD14-99] + CCNC(=O)c1noc(-c2cc(C(C)C)c(O)cc2O)c1-c1ccc(CN2CCOCC2)cc1 [Luminespib] (partner 0.01 µM)
In short: (§1)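 A single step with final 0.05% Triton X-100, 1% formaldehyde and 1 ug/ml Hoechst fixed the cells and stained nuclei 5 days after treatment. Lung cancer cell lines in 1536-well plates had been treated by pin tool the day after seeding with one drug alone or a fixed anchor-drug dose plus five library-drug doses (not always all listed) in √10 steps, and nuclei were counted on 4× images. Relative viability is the ratio of nuclei in treated wells to nuclei in vehicle wells, taken as the median of duplicate plates.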

XMD14-99 + Palbociclib = compound: CN1CCN(CC1)C2=CC(=C(C=C2)NC3=NC(=C(S3)C(=O)C4=C(C=CC=C4Cl)Cl)N)OC [XMD14-99] + CC(=O)c1c(C)c2cnc(Nc3ccc(N4CCNCC4)cn3)nc2n(C2CCCC2)c1=O [Palbociclib] (partner 0.5 µM)
In short: as §1

AZD1208 + Palbociclib = compound: N[C@@H]1CCCN(c2c(/C=C3\SC(=O)NC3=O)cccc2-c2ccccc2)C1 [AZD1208] + CC(=O)c1c(C)c2cnc(Nc3ccc(N4CCNCC4)cn3)nc2n(C2CCCC2)c1=O [Palbociclib] (partner 0.5 µM)
In short: as §1

XMD14-99 + AZD7762 = compound: CN1CCN(CC1)C2=CC(=C(C=C2)NC3=NC(=C(S3)C(=O)C4=C(C=CC=C4Cl)Cl)N)OC [XMD14-99] + NC(=O)Nc1cc(-c2cccc(F)c2)sc1C(=O)N[C@H]1CCCNC1 [AZD7762] (partner 0.2 µM)
In short: as §1

Cell Line	relative viability (XMD14-99 + Luminespib; first compound 0.08 µM)	relative viability (XMD14-99 + Luminespib; first compound 0.8 µM)	relative viability (XMD14-99 + Luminespib; first compound 2.53 µM)	relative viability (XMD14-99 + Luminespib; first compound 8 µM)	relative viability (XMD14-99 + Palbociclib; first compound 0.08 µM)	relative viability (XMD14-99 + Palbociclib; first compound 0.8 µM)	relative viability (XMD14-99 + Palbociclib; first compound 2.53 µM)	relative viability (XMD14-99 + Palbociclib; first compound 8 µM)	relative viability (AZD1208 + Palbociclib; first compound 0.08 µM)	relative viability (AZD1208 + Palbociclib; first compound 0.253 µM)	relative viability (AZD1208 + Palbociclib; first compound 0.8 µM)	relative viability (AZD1208 + Palbociclib; first compound 2.53 µM)	relative viability (AZD1208 + Palbociclib; first compound 8 µM)	relative viability (XMD14-99 + AZD7762; first compound 0.08 µM)	relative viability (XMD14-99 + AZD7762; first compound 0.8 µM)	relative viability (XMD14-99 + AZD7762; first compound 2.53 µM)	relative viability (XMD14-99 + AZD7762; first compound 8 µM)
NCI-H2087	0.151	0.173	0.179	0.135	0.198	0.279	0.236	0.246	0.257	0.192	0.276	0.241	0.219	1.26	1.14	1.04	0.764
NCI-H838	0.28	0.293	0.239	0.235	0.221	0.217	0.226	0.213	0.21	0.231	0.209	0.187	0.201	0.91	0.952	0.975	0.897
NCI-H460	0.0305	0.037	0.0277	0.0243	0.156	0.21	0.164	0.12	0.195	0.19	0.223	0.15	0.159	0.619	0.601	0.634	0.453
LOU-NH91	0.443	0.325	0.294	0.3	0.509	0.548	0.575	0.499	0.473	0.56	0.549	0.525	0.531	0.785	0.814	0.714	0.675
NCI-H322M	0.857	1.06	0.939	0.863	0.449	0.523	0.472	0.514	0.488	0.467		0.5	0.502	0.593	0.542	0.583	0.509
NCI-H727	0.383	0.305	0.203	0.352	0.691	0.652	0.609	0.544	0.597	0.628	0.64	0.614	0.56	0.582	0.598	0.506	0.578
NCI-H1793	0.232	0.184	0.499	0.25	0.286	0.316	0.314	0.284	0.293	0.305	0.273	0.304	0.288	0.512	0.298	0.389	0.298
NCI-H1734	0.175	0.179	0.172	0.185	0.355	0.338	0.379	0.355	0.312	0.32	0.313	0.325	0.255	0.487	0.513	0.459	0.51
LXF-289	0.586	0.672	0.639	0.634	0.625	0.571	0.55	0.575	0.587	0.639	0.583	0.622	0.635	1.14	0.969	1.12	0.98
H3255	0.958	0.934	0.781	0.614	0.317	0.303	0.296	0.295	0.299	0.307	0.333	0.314	0.326	0.854	0.777	0.75	0.586
201T	1	1.01	0.993	0.829	0.351	0.368	0.371	0.333	0.371	0.366	0.351	0.35	0.34	0.529	0.598	0.583	0.607
HOP-62	0.93	0.878	0.846	0.778	0.435	0.41	0.538	0.443	0.483	0.503	0.431	0.439	0.469	0.489	0.57	0.726	0.513
CAL-12T	0.387	0.524	0.358	0.346	0.532	0.43	0.485	0.413	0.501	0.483	0.569	0.434	0.448	0.65	0.549	0.671	0.573
NCI-H1755	0.464	0.396	0.305	0.369	0.477	0.458	0.474	0.476	0.439	0.459	0.437	0.458	0.385	0.44	0.366	0.467	0.357
NCI-H2085	0.429	0.41	0.377	0.368	0.453	0.447	0.462	0.41	0.462	0.473	0.52	0.482	0.474	0.95	0.914	0.881	0.72
